Assay results from patent publication US20190017017A1, “USE OF VASCULAR CELLS TO CREATE THE CONVENTIONAL OUTFLOW TRACT” (THE RESEARCH FOUNDATION FOR THE STATE UNIVERSITY OF NEW YORK, priority 2016, published 2019).

What was measured:
HTM cells = assay: Outflow facility of porous scaffolds bearing cultured HTM cells (perfusion); assay type: cell-based, human; details: FIG. 15
Excerpt: TM cells and SC cell-like cells co-cultured on a porous scaffold in accordance with aspects of the present disclosure may serve as a system to model conventional outflow tract function, physiology, and pathophysiology. FIG. 13A is a diagrammatic representation of a testing apparatus for performing perfusion-related testing in accordance with aspects of the present disclosure. A syringe pump or other pressure source may feed into a holder for a porous scaffold, with TM and SC cell-like cells co-cultured thereupon, with pressure controlled and measured by a pressure transducer. The pressure across the porous scaffold and cells, and other aspects related to pressure such as through-flow, flow rate, resistance to flow, hydraulic conductivity, and other indicia of conventional outflow tract function may be measured. For example, fluids can be perfused across the co-culture-bearing scaffold and aspects of fluid mechanics measured as an indication of conventional outflow tract function. […] Aspects of membrane pressure, outflow dynamics, and cellular function can similarly be measured under different conditions known or hypothesized to replicate disease states, or lack thereof, or conditions known or believed to prevent, ameliorate, or cure disease or pathological states. In an example, fluid may be perfused across a porous scaffold bearing co-cultured TM and SC cell-like cells and effects of transmembrane pressure, flow rate, through-flow, resistance to flow, hydraulic conductivity, vacuole dynamics, pore formation, or outflow facility of the co-cultured TM cells and SC cell-like cells may be measured. […] Other aspects of cellular physiology or function may similarly be measured, in response or relation to perfusion or otherwise. […]
A perfusion apparatus was used as described in publicly available literature and in accordance with the apparatus illustrated in FIG. 13. […] Vacuole/pore size were measured using the embedded LEO electron microscopy image software. […]

HTM/HMVEC constructs = assay: qPCR and western blot of outflow pathway markers in co-cultured constructs exposed to pharmacologic agents; assay type: cell-based, human; details: qPCR and western blotting; FIGS. 14A-E
Experimental: Total RNA was extracted from samples using an RNeasy Plus Mini kit (Qiagen Inc., Valencia, Calif.). RNA concentrations were determined using a NanoDrop spectrophotometer. 50 ng of RNA per sample was used for each qPCR experiments. qPCR was carried out using TAQMAN RNA-TO-CT™ 1-Step Kit (Applied Biosystems, Carlsbad, Calif.) and performed on an AB StepOnePlus Real Time PCR system (Life Technologies, Carlsbad, Calif.) using primers for αB-crystallin, PECAM-1, fibulin-2, collagen type IV, fibronectin, laminin and GAPDH.
The temperature profile was as follows: 48° C. for 15 min (reverse transcription step), followed by an enzyme activation step of 95° C. for 10 min, 40 cycles of 15 s denaturation at 95° C. and 1 min anneal/extend at 60° C. Relative quantitation data analysis was performed using the comparative quantification method, ΔΔCt, with GAPDH as the endogenous reference. […]
FIGS. 14A-E show gene (left panels, qPCR) and protein (right, western blots) expression patterns of co-cultured HTM/HVEC constructs. HTM-HMVEC and HTM-HSC constructs were contacted with pharmacologic agents that regulate outflow and expression levels of various genes and proteins (α-SMA, collagen IV, fibronectin, myocillin) measured by qPCR and western blotting. […]

How did the “effect on outflow facility” value (HTM cells) turn out when `C[C@@H](N)[C@H]1CC[C@H](C(=O)Nc2ccncc2)CC1` [Y27632] was run?
The value was “stimulate”.

And the “response (expression of α-SMA, collagen IV, fibronectin, myocillin) of HTM-HMVEC constructs compared with HTM-HSC constructs” value (HTM/HMVEC constructs)?
Its value is “responds similar”.

For `CC(=O)OCC(=O)[C@@]1(O)CC[C@H]2[C@@H]3CCC4=CC(=O)C=C[C@]4(C)[C@H]3C(=O)C[C@@]21C` [prednisone acetate], which “effect on outflow facility” value (HTM cells) is on record?
The value was “inhibit”.

TGFβ was tested. Which “effect on outflow facility” value (HTM cells) did it give?
Its value is “inhibit”.

What about the “response (expression of α-SMA, collagen IV, fibronectin, myocillin) of HTM-HMVEC constructs compared with HTM-HSC constructs” value (HTM/HMVEC constructs) of the same molecule?
Its value is “responds similar”.
